Broadly, the Kd is the concentration at which binding is half-saturated. As usually defined, the EC50 is the concentration needed to bring the measured effect to its halfway point.

We go through 37 compounds from US9822127B2, “GAK modulators as antivirals” (Katholieke Universiteit Leuven, priority 2014, dated 2017).

For one data set, the target named is T1, GAK (Homo sapiens, UniProt O14976).
T1 construct: made in house; host or cells: T7 phage grown in E. coli host derived from BL21
T1 sequence (O14976 1-1311): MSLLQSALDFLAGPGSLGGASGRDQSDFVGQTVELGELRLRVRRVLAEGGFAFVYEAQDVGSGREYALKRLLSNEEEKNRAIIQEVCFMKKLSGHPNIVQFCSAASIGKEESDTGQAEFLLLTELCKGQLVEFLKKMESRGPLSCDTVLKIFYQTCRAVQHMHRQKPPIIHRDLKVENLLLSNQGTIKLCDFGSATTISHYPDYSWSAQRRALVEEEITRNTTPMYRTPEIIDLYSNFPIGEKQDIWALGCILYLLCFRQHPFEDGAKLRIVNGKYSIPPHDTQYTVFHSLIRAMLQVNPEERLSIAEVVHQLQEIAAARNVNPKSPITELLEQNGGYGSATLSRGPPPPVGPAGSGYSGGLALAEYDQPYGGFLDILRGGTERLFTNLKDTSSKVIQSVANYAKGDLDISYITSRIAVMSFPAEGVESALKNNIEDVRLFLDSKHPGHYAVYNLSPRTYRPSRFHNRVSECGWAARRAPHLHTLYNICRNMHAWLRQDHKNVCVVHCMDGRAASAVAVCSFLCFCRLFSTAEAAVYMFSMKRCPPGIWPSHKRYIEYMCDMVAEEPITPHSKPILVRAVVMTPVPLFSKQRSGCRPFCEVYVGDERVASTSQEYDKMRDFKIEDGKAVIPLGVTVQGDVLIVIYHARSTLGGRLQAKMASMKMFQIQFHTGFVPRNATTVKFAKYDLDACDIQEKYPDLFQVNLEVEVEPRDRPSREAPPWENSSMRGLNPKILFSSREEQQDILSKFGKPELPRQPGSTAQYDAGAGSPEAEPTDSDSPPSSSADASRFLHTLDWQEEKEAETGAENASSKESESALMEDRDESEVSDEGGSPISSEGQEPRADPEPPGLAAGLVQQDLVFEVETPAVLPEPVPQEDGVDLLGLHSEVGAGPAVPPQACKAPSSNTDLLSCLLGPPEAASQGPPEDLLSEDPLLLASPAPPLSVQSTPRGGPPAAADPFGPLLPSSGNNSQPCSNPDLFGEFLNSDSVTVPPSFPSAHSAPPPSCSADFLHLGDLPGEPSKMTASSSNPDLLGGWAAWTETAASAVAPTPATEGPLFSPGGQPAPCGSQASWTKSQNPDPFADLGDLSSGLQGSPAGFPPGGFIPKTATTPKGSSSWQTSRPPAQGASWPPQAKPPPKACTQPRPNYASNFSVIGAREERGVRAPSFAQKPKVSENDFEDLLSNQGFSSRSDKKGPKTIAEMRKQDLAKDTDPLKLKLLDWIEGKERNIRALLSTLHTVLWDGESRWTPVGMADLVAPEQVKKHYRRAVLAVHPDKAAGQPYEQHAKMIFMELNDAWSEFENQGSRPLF
Nature of the data set: GAK binding assay (T7 phage kinase competition binding). The settings on record: for % Ctrl: 10 µM; for remaining binding at 10 µM: read-out: % Ctrl.

For data set [1], the system named is SARS Coronavirus (Virus strain: Urbani). Nature of the data set: microbe, parasite or virus in culture. It counts as cell-based.
Data set [2] is described as follows: Cytotoxicity in CPE assay, Vero76. To be noted: African green monkey.
Another data set deals with Vero76. To be noted: African green monkey.
The nature of a further data set: in vitro. The settings on record: African green monkey.
Setting [3] is: single concentration of 10 μM, lower numbers indicate stronger hits.
The mark [4] stands for this setting: Severe acute respiratory syndrome coronavirus, Vero 76.

Values after ≈ are worked out from the molar mass of the structure shown. Read-outs that look alike come from different tables or passages of the source. Some results are limits rather than exact numbers.

Turning to “6-bromo-6-ethanolamino-isothiazolo[4,3-b]pyridine [Example 12]”, the “% Ctrl” value on GAK is reported as 62%.

`Nc1snc2cc(-c3ccccc3)cnc12` [Example 4, 3-amino-6-phenyl-isothiazolo[4,3-b]-pyridine]: the remaining binding at 10 µM on GAK (setting [3]) came to 68%.

In the case of `Nc1snc2cc(-c3cccnc3)cnc12` [Example 5, 3-amino-6-(3-pyridyl)-isothiazolo[4,3-b]pyridine], on GAK (setting [3]), the remaining binding at 10 µM is 80%.

Take `COc1ccc(-c2cnc3c(N)snc3c2)cc1OC` [Example 6, 3-amino-6-(3,4-dimethoxyphenyl)-isothiazolo[4,3-b]pyridine]: the remaining binding at 10 µM on GAK (setting [3]) was determined as 70%.

Take `Nc1snc2cc(-c3ccc(F)cc3)cnc12` [Example 7, 3-amino-6-(4-fluorophenyl)-isothiazolo[4,3-b]pyridine]: on GAK (setting [3]), the remaining binding at 10 µM amounted to 55%.

For `Nc1snc2cc(-c3ccsc3)cnc12` [Example 8, 3-amino-6-(3-thienyl)-isothiazolo[4,3-b]pyridine], the remaining binding at 10 µM on GAK (setting [3]) stood at 61%.

Turning to `COc1snc2cc(Br)cnc12` [Example 14, 3-methoxy-6-bromo-isothiazolo[4,3-b]pyridine], at GAK (setting [3]), the “% Ctrl” value is on record as 87%.

Turning to `c1ccc(-c2cnc3c(N4CCOCC4)snc3c2)cc1` [Example 23, 3-morpholino-6-phenyl-isothiazolo[4,3-b]pyridine], on GAK, binding was put at a Kd of 500 nM. For the same compound, the remaining binding at 10 µM at GAK (setting [3]) is 0.8%. The EC50 in data set [1] is 4.4 µg/mL (≈ 14.8 µM); in data set [1] (setting [4]), 4.5 µg/mL (≈ 15.1 µM). Besides, the CC50 in data set [2] (CC50, Neutral Red) came to 50 µg/mL (≈ 168 µM); in data set [2] (CC50, Visual), 34 µg/mL (≈ 114 µM).

Consider `Fc1ccc(-c2cnc3c(N4CCOCC4)snc3c2)cc1` [Example 24], for which the remaining binding at 10 µM on GAK (setting [3]) turned out to be 11%.

Take `c1cncc(-c2cnc3c(N4CCOCC4)snc3c2)c1` [Example 25, 3-morpholino-6-(3-pyridyl)-isothiazolo[4,3-b]pyridine]: the remaining binding at 10 µM on GAK (setting [3]) was found to be 25%.

Consider `COc1ccc(-c2cnc3c(N4CCOCC4)snc3c2)cc1OC` [Example 26], for which, at GAK (setting [3]), the remaining binding at 10 µM worked out at 0%.

For the compound `c1cc(-c2cnc3c(N4CCOCC4)snc3c2)cs1` [Example 27], the remaining binding at 10 µM at GAK (setting [3]) came out at 0.1%.

As to `OCCNc1snc2cc(-c3cccnc3)cnc12` [Example 28], the remaining binding at 10 µM at GAK (setting [3]) stood at 45%.

The compound `OCCNc1snc2cc(-c3ccsc3)cnc12` [Example 30, 3-ethanolamino-6-(3-thienyl)-isothiazolo[4,3-b]pyridine] came in with a Kd at GAK of 300 nM. At GAK (setting [3]), the remaining binding at 10 µM is 0.3%.

As for `OCCNc1snc2cc(-c3ccccc3)cnc12` [Example 31, 3-ethanolamino-6-phenyl-isothiazolo[4,3-b]pyridine], the remaining binding at 10 µM at GAK (setting [3]) was 18%.

For `OCCNc1snc2cc(-c3ccc(F)cc3)cnc12` [Example 32, 3-ethanolamino-6-(3-(4-fluorophenyl))-isothiazolo[4,3-b]pyridine], the remaining binding at 10 µM on GAK (setting [3]) turned out to be 2.2%.

Turning to `COc1snc2cc(-c3ccc(F)cc3)cnc12` [Example 34, 3-methoxy-6-(4-fluoro-phenyl)-isothiazolo[4,3-b]pyridine], on GAK (setting [3]), the remaining binding at 10 µM turned out to be 37%.

With `COc1snc2cc(-c3cccnc3)cnc12` [Example 35], at GAK, the “% Ctrl” value is on record as 93%.

Regarding `COc1ccc(-c2cnc3c(OC)snc3c2)cc1OC` [Example 36], on GAK, the “% Ctrl” value is given as 19%.

As to `COc1snc2cc(-c3ccsc3)cnc12` [Example 37], the “% Ctrl” value at GAK was 22%.

In the case of `CN1CCN(c2snc3cc(-c4ccccc4)cnc23)CC1` [Example 38], the remaining binding at 10 µM at GAK (setting [3]) stood at 76%.

Regarding `CN1CCN(c2snc3cc(-c4cccnc4)cnc23)CC1` [Example 39, 3-(N-Me-piperazinyl)-6-(3-pyridyl)-isothiazolo[4,3-b]pyridine], at GAK (setting [3]), the remaining binding at 10 µM was determined as 88%.

As to `COc1ccc(-c2cnc3c(N4CCN(C)CC4)snc3c2)cc1OC` [Example 40, 3-(N-Me-piperazinyl)-6-(3,4-dimethoxyphenyl)-isothiazolo[4,3-b]pyridine], the remaining binding at 10 µM on GAK (setting [3]) was 19%.

Consider `CN1CCN(c2snc3cc(-c4ccsc4)cnc23)CC1` [Example 41, 3-(N-Me-piperazinyl)-6-(3-thienyl)-isothiazolo[4,3-b]pyridine], for which the remaining binding at 10 µM at GAK (setting [3]) came to 7.4%.

For `CN1CCN(c2snc3cc(-c4ccc(F)cc4)cnc23)CC1` [Example 42, 3-(N-Me-piperazinyl)-6-(4-fluorophenyl)-isothiazolo[4,3-b]pyridine], the remaining binding at 10 µM on GAK (setting [3]) stood at 72%.

On to `c1csc(-c2cnc3c(N4CCOCC4)snc3c2)c1` [Example 43, 4-(6-(Thiophen-2-yl)isothiazolo[4,3-b]pyridin-3-yl)morpholine], for which the Kd on GAK was 47 nM. For the same compound, on GAK (setting [3]), the remaining binding at 10 µM turned out to be 0.05%.

In the case of `COc1ccc(OC)c(-c2cnc3c(N4CCOCC4)snc3c2)c1` [Example 44, 4-(6-(2,5-Dimethoxyphenyl)isothiazolo[4,3-b]pyridin-3-yl)morpholine], at GAK (setting [3]), the remaining binding at 10 µM was determined as 0.7%.

Consider `COc1ccc(-c2cnc3c(N4CCOCC4)snc3c2)c(OC)c1` [Example 45, 4-(6-(2,4-Dimethoxyphenyl)isothiazolo[4,3-b]pyridin-3-yl)morpholine], for which, on GAK (setting [3]), the remaining binding at 10 µM is 6.3%.

On to `COc1cc(-c2cnc3c(N4CCOCC4)snc3c2)ccc1OC(C)=O` [Example 47, 2-Methoxy-4-(3-morpholinoisothiazolo[4,3-b]pyridin-6-yl)phenyl acetate], for which, at GAK (setting [3]), the remaining binding at 10 µM was determined as 0%.

Consider `COc1cc(OC)cc(-c2cnc3c(N4CCOCC4)snc3c2)c1` [Example 48, 4-(6-(3,5-Dimethoxyphenyl)isothiazolo[4,3-b]pyridin-3-yl)morpholine], for which, on GAK (setting [3]), the remaining binding at 10 µM came to 0.2%.

As for `c1cc2c(cc1-c1cnc3c(N4CCOCC4)snc3c1)OCO2` [Example 51, 4-(6-(Benzo[d][1,3]dioxol-5-yl)isothiazolo[4,3-b]pyridin-3-yl)morpholine], the remaining binding at 10 µM at GAK (setting [3]) is 51%.

As for `COc1ccc(-c2cnc3c(N4CCSCC4)snc3c2)cc1OC` [Example 58, 6-(3,4-dimethoxyphenyl)-3-thiomorpholinoisothiazolo[4,3-b]pyridine], the Kd at GAK is 230 nM. The remaining binding at 10 µM on GAK (setting [3]) came to 0.8%.

`COc1cc(-c2cnc3c(N4CCOCC4)snc3c2)ccc1O` [Example 64, 2-methoxy-4-(3-morpholinoisothiazolo[4,3-b]pyridin-6-yl)phenol]: the remaining binding at 10 µM on GAK (setting [3]) is 0%. Moreover, the CC50 in data set [2] (CC50, Neutral Red) stood at 0.97 µg/mL (≈ 2.82 µM); in data set [2] (CC50, Visual) it was 0.42 µg/mL (≈ 1.22 µM).

In the case of `COc1ccc(-c2cnc3c(N4CCC(O)CC4)snc3c2)cc1OC` [Example 66, 1-(6-(3,4-dimethoxyphenyl)-isothiazolo[4,3-b]pyridin-3-yl)piperidin-4-ol], the EC50 came out at 38 µg/mL (≈ 102 µM) in data set [1] and 50 µg/mL (≈ 135 µM) in data set [1] (setting [4]). Further, the CC50 was >100 µg/mL in the data set on Vero76 and > 100 µg/mL in “in vitro”.

`COc1ccc(-c2cnc3c(N(CCO)CCO)snc3c2)cc1OC` [Example 70, 2,2′-(6-(3,4-dimethoxyphenyl)isothiazolo[4,3-b]pyridin-3-ylazanediyl)diethanol] registered a Kd at GAK of 320 nM. Also, on GAK (setting [3]), the remaining binding at 10 µM was 4%.

In turn, `COc1ccc(-c2cnc3c(N4CCCC4)snc3c2)cc1OC` [Example 73, 6-(3,4-dimethoxyphenyl)-3-(pyrrolidin-1-yl)isothiazolo[4,3-b]pyridine] registered a Kd at GAK of 100 nM. Besides, the remaining binding at 10 µM at GAK (setting [3]) was determined as 0%.

Compound `COc1ccc(-c2cnc3c(NCC4CC4)snc3c2)cc1OC` [Example 76, N-(cyclopropylmethyl)-6-(3,4-dimethoxyphenyl)isothiazolo[4,3-b]pyridin-3-amine] yielded a Kd on GAK of 27 nM. The remaining binding at 10 µM at GAK (setting [3]) amounted to 0%. Besides, the EC50 in data set [1] worked out at 0.54 µg/mL (≈ 1.58 µM); in data set [1] (setting [4]), 0.86 µg/mL (≈ 2.52 µM). The CC50 in data set [2] (CC50, Neutral Red) was determined as 33 µg/mL (≈ 96.7 µM); in data set [2] (CC50, Visual), 18 µg/mL (≈ 52.7 µM).
